From patent US20230278972A1, “SUBSTITUTED HALOALKYL SULFONANILIDE HERBICIDES” (FMC Corporation, priority 2020, published 2023)

Assays:
Type in all cases: in vivo
[1] = system: barnyardgrass (Echinochloa crus-galli); test: Test A postemergence, barnyardgrass; settings: Postemergence, 0 to 100 scale (0 no effect, 100 complete control); for Plant response rating, Barnyardgrass: 125 g ai/ha; for Barnyardgrass plant response rating: 500 g ai/ha, visual injury vs untreated controls after approx. 10 days
Outline: (§1)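 Seeds are sown in loam mixed with sand and sprayed on the soil surface right after planting for the preemergence test. Postemergence pots are sprayed once seedlings reach 2 to 10 cm at the one- to two-leaf stage. The same surfactant-containing, non-phytotoxic solvent formulation serves both.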

[2] = system: ragweed (common ragweed, Ambrosia artemisiifolia); test: Test A postemergence, ragweed; settings: Postemergence, 0 to 100 scale (0 no effect, 100 complete control); for Plant response rating, Ragweed: 125 g ai/ha; for Ragweed plant response rating: 500 g ai/ha, visual injury vs untreated controls after approx. 10 days
Outline: (§2)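 Postemergence ratings come from foliar sprays onto one- to two-leaf plants of 2 to 10 cm grown in loam/sand; preemergence ratings come from a directed spray onto the soil of newly seeded pots. Formulation was a surfactant-containing non-phytotoxic solvent blend.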

[3] = system: barnyardgrass (Echinochloa crus-galli); test: Test A preemergence, barnyardgrass; settings: Preemergence; for Barnyardgrass plant response rating: visual injury on 0 to 100 scale (0 no effect, 100 complete control), approximately 10 days; for Plant response rating, Barnyardgrass: 0 to 100 scale (0 no effect, 100 complete control)
Outline: as §2

[4] = system: pigweed (Amaranthus retroflexus); test: Test A preemergence, pigweed; settings: for Pigweed plant response rating: visual injury on 0 to 100 scale (0 no effect, 100 complete control), approximately 10 days; for Plant response rating, Pigweed: 0 to 100 scale (0 no effect, 100 complete control)
Outline: as §1

[5] = system: Foxtail, Giant (giant foxtail, Setaria faberi); test: Test A preemergence, Foxtail, Giant; settings: Preemergence; for Foxtail, Giant plant response rating: visual injury on 0 to 100 scale (0 no effect, 100 complete control), approximately 10 days; for Plant response rating, Foxtail, Giant: 0 to 100 scale (0 no effect, 100 complete control)
Outline: as §2

kochia (Bassia scoparia) [6] = test: Test A preemergence, kochia; settings: Preemergence; for Kochia plant response rating: visual injury on 0 to 100 scale (0 no effect, 100 complete control), approximately 10 days; for Plant response rating, Kochia: 0 to 100 scale (0 no effect, 100 complete control)
Outline: as §2

[7] = system: pigweed (Amaranthus retroflexus); test: Test A postemergence, pigweed; settings: Postemergence, 0 to 100 scale (0 no effect, 100 complete control); for Plant response rating, Pigweed: 125 g ai/ha; for Pigweed plant response rating: 500 g ai/ha, visual injury vs untreated controls after approx. 10 days
Outline: as §2

[8] = system: Ryegrass, Italian (Italian ryegrass, Lolium multiflorum); test: Test A postemergence, Ryegrass, Italian; settings: Postemergence, 0 to 100 scale (0 no effect, 100 complete control); for Plant response rating, Ryegrass, Italian: 125 g ai/ha; for Ryegrass, Italian plant response rating: 500 g ai/ha, visual injury vs untreated controls after approx. 10 days
Outline: as §2

[9] = system: wheat (Triticum aestivum); test: Test A postemergence, wheat; settings: Postemergence, 0 to 100 scale (0 no effect, 100 complete control); for Plant response rating, Wheat: 125 g ai/ha; for Wheat plant response rating: 500 g ai/ha, visual injury vs untreated controls after approx. 10 days
Outline: as §1

[10] = system: galium (catchweed bedstraw, Galium aparine); test: Test A postemergence, galium; settings: Postemergence, 0 to 100 scale (0 no effect, 100 complete control); for Plant response rating, Galium: 125 g ai/ha; for Galium plant response rating: 500 g ai/ha, visual injury vs untreated controls after approx. 10 days
Outline: as §1

corn (Zea mays) = test: Test A postemergence, corn; settings: Postemergence, 0 to 100 scale (0 no effect, 100 complete control); for Plant response rating, Corn: 125 g ai/ha; for Corn plant response rating: 500 g ai/ha, visual injury vs untreated controls after approx. 10 days
Outline: as §2

kochia (Bassia scoparia) [11] = test: Test A postemergence, kochia; settings: Postemergence, 0 to 100 scale (0 no effect, 100 complete control); for Plant response rating, Kochia: 125 g ai/ha; for Kochia plant response rating: 500 g ai/ha, visual injury vs untreated controls after approx. 10 days
Outline: as §2

[12] = system: Foxtail, Giant (giant foxtail, Setaria faberi); test: Test A postemergence, Foxtail, Giant; settings: Postemergence, 0 to 100 scale (0 no effect, 100 complete control); for Plant response rating, Foxtail, Giant: 125 g ai/ha; for Foxtail, Giant plant response rating: 500 g ai/ha, visual injury vs untreated controls after approx. 10 days
Outline: as §2

[13] = system: Ryegrass, Italian (Italian ryegrass, Lolium multiflorum); test: Test A preemergence, Ryegrass, Italian; settings: Preemergence; for Ryegrass, Italian plant response rating: visual injury on 0 to 100 scale (0 no effect, 100 complete control), approximately 10 days; for Plant response rating, Ryegrass, Italian: 0 to 100 scale (0 no effect, 100 complete control)
Outline: as §2

[14] = system: ragweed (common ragweed, Ambrosia artemisiifolia); test: Test A preemergence, ragweed; settings: Preemergence; for Ragweed plant response rating: visual injury on 0 to 100 scale (0 no effect, 100 complete control), approximately 10 days; for Plant response rating, Ragweed: 0 to 100 scale (0 no effect, 100 complete control)
Outline: as §2

[15] = system: blackgrass (Alopecurus myosuroides); test: Test A postemergence, blackgrass; settings: Postemergence, 0 to 100 scale (0 no effect, 100 complete control); for Plant response rating, Blackgrass: 125 g ai/ha; for Blackgrass plant response rating: 500 g ai/ha, visual injury vs untreated controls after approx. 10 days
Outline: as §2

[16] = 125 g ai/ha, visual injury, approx. 10 days

Compound | Plant response rating, Barnyardgrass [1] | Barnyardgrass plant response rating [1] | Plant response rating, Ragweed [2] | Ragweed plant response rating [2] | Plant response rating, Barnyardgrass ([3]; 500 g ai/ha) | Plant response rating, Pigweed ([4]; 500 g ai/ha) | Plant response rating, Foxtail, Giant ([5]; 500 g ai/ha) | Plant response rating, Kochia (kochia (Bassia scoparia) [6]; 500 g ai/ha) | Plant response rating, Pigweed [7] | Pigweed plant response rating [7] | Plant response rating, Ryegrass, Italian [8] | Ryegrass, Italian plant response rating [8] | Wheat plant response rating [9] | Galium plant response rating [10] | Corn plant response rating (corn (Zea mays)) | Kochia plant response rating (kochia (Bassia scoparia) [11]) | Foxtail, Giant plant response rating [12] | Plant response rating, Ryegrass, Italian ([13]; 500 g ai/ha) | Plant response rating, Ragweed ([14]; 500 g ai/ha) | Blackgrass plant response rating [15] | other results
C#CCN(CC#C)C(=O)c1cc(NS(=O)(=O)C(F)(F)F)c(C)cc1C [Compound 187] | 90 | 90 | 80 | 90 | 100 | 80 | 100 | 80 | 30 | 60 | 90 | 80 | 70 | 80 | 90 | 70 | 90 | 100 | 90 | 20 | Barnyardgrass plant response rating ([3]; 125 g ai/ha): 100; Pigweed plant response rating ([4]; 125 g ai/ha): 70; Foxtail, Giant plant response rating ([5]; 125 g ai/ha): 100; Kochia plant response rating (kochia (Bassia scoparia) [6]; 125 g ai/ha): 80; Plant response rating, Wheat [9]: 70; Plant response rating, Galium [10]: 80; Plant response rating, Corn (corn (Zea mays)): 80; Plant response rating, Kochia (kochia (Bassia scoparia) [11]): 50; Plant response rating, Foxtail, Giant [12]: 80; Ryegrass, Italian plant response rating ([13]; 125 g ai/ha): 100; Ragweed plant response rating ([14]; 125 g ai/ha): 70; Plant response rating, Blackgrass [15]: 20
Cc1cc(Cl)c(NS(=O)(=O)C(F)(F)F)cc1C1=NOC2(CCCC2)C1 [Compound 204] | 0 | 80 | 20 | 80 | 90 | 100 | 100 | 90 | 20 | 70 | 40 | 50 | 70 | 80 | 50 | 70 | 60 | 100 | 90 | 40 | Plant response rating, Barnyardgrass [3, 16]: 90; Plant response rating, Pigweed [4, 16]: 90; Plant response rating, Foxtail, Giant [5, 16]: 80; Plant response rating, Kochia (kochia (Bassia scoparia) [6]; [16]): 40; Plant response rating, Wheat [9]: 50; Plant response rating, Galium [10]: 50; Plant response rating, Corn (corn (Zea mays)): 10; Plant response rating, Kochia (kochia (Bassia scoparia) [11]): 30; Plant response rating, Foxtail, Giant [12]: 10; Plant response rating, Ryegrass, Italian [13, 16]: 90; Plant response rating, Ragweed [14, 16]: 10; Plant response rating, Blackgrass [15]: 0
CCC1(CC)CC(c2cc(NS(=O)(=O)C(F)(F)F)c(C)cc2C)=NO1 [Compound 209] | 20 | 70 | 40 | 60 | 90 | 50 | 70 | 80 | 30 | 50 | 40 | 90 | 0 | 80 | 30 | 40 | 10 | 90 | 60 | 30 | Plant response rating, Barnyardgrass [3, 16]: 40; Plant response rating, Pigweed [4, 16]: 0; Plant response rating, Foxtail, Giant [5, 16]: 20; Plant response rating, Kochia (kochia (Bassia scoparia) [6]; [16]): 0; Plant response rating, Wheat [9]: 0; Plant response rating, Galium [10]: 70; Plant response rating, Corn (corn (Zea mays)): 0; Plant response rating, Kochia (kochia (Bassia scoparia) [11]): 20; Plant response rating, Foxtail, Giant [12]: 0; Plant response rating, Ryegrass, Italian [13, 16]: 50; Plant response rating, Ragweed [14, 16]: 0; Plant response rating, Blackgrass [15]: 20
Cc1cc(C)c(-c2ccnn(C(C)C)c2=O)cc1NS(=O)(=O)C(F)(F)F [Compound 78] | – | 70 | – | 40 | 100 | 90 | 100 | 60 | – | 50 | – | 60 | 70 | 90 | 50 | 20 | 90 | 100 | 90 | 30 | Plant response rating, Barnyardgrass ([1]; visual injury approx. 10 days): 40; Plant response rating, Ragweed ([2]; visual injury approx. 10 days): 0; Barnyardgrass plant response rating ([3]; 125 g ai/ha): 90; Pigweed plant response rating ([4]; 125 g ai/ha): 30; Foxtail, Giant plant response rating ([5]; 125 g ai/ha): 100; Kochia plant response rating (kochia (Bassia scoparia) [6]; 125 g ai/ha): 0; Plant response rating, Pigweed ([7]; visual injury approx. 10 days): 0; Plant response rating, Ryegrass, Italian ([8]; visual injury approx. 10 days): 40; Plant response rating, Wheat ([9]; visual injury approx. 10 days): 0; Plant response rating, Galium ([10]; visual injury approx. 10 days): 60; Plant response rating, Corn (corn (Zea mays); visual injury approx. 10 days): 0; Plant response rating, Kochia (kochia (Bassia scoparia) [11]; visual injury approx. 10 days): 0; Plant response rating, Foxtail, Giant ([12]; visual injury approx. 10 days): 70; Ryegrass, Italian plant response rating ([13]; 125 g ai/ha): 100; Ragweed plant response rating ([14]; 125 g ai/ha): 80; Plant response rating, Blackgrass ([15]; visual injury approx. 10 days): 0
